Earlier results in publication PMC6332596 (Journal of Hematology & Oncology, 2019).

Parameters: method as in PMID 25933833, PMID 21131552
Settings: compared with chiauranib; cited from earlier work

SMILES | DLTs in phase I trials
Cc1cc(Nc2cc(N3CCN(C)CC3)nc(/C=C/c3ccccc3)n2)n[nH]1 [ENMD-2076] | more DLTs, such as pancreatic disease and hypertension, fatigue, cholecystitis, and QTc prolonged
Nc1ncc(-c2cnn(CCO)c2)c2scc(-c3ccc(NC(=O)Nc4cccc(F)c4)cc3)c12 [Ilorasertib] | more DLTs, such as pancreatic disease and hypertension, fatigue, cholecystitis, and QTc prolonged
